Legend:
[1] = Catalysis of toluene diisocyanate condensation to cellular/resinous carbodiimide products (Table I); details: 100 parts toluene diisocyanate
Protocol: Utilizing the triazines of Examples III-VI hereof, a series of cellular and resinous products characterized by carbodiimide linkages, as defined in the above-referred to patents, were prepared by the following procedure:
(§1) One hundred parts of toluene diisocyanate was admixed with a catalyst in accordance herewith. With stirring, the admixture was heated to its reaction initiation temperature at which time the reactants were transferred to a separate container for foaming.

[2] = Efficacy of triazine catalysts with 1 part methanol in the catalyst blend (Table II); details: 1 part of methanol introduced into the catalyst blend
Protocol: as §1
To test the efficacy of the instant catalysts, samples analogous to samples C, D and Control were prepared, but wherein 1 part of methanol was introduced into the catalyst blend.

| SMILES | Initiation Temperature ([1]; catalyst 1.0 part) [°C] | Max. Exotherm ([1]; catalyst 1.0 part) [°C] | Nature of Product ([1]; catalyst 1.0 part) | Initiation Temp. [2] [°C] | Nature of Product [2] | Initiation Temperature ([1]; catalyst 2.0 parts) [°C] | Max. Exotherm ([1]; catalyst 2.0 parts) [°C] | Nature of Product ([1]; catalyst 2.0 parts) | Maximum Exotherm [2] [°C] |
| --- | --- | --- | --- | --- | --- | --- | --- | --- | --- |
| CCCCN(CCCC)c1nc(N(CCO)CCCN(C)C)nc(N(CCCC)CCCC)n1 [Example V, 2,4-bis(dibutylamino)-6-[3-dimethylamino-N-(2-hydroxyethyl)propylamino]-s-triazine] | 95 | 197 | Resin | 25 | Foam |  |  |  |  |
| CN(C)CCCN(CCO)c1nc(N(CCO)CCCN(C)C)nc(N(CCO)CCCN(C)C)n1 [Example III, 2,4,6-tris[3-dimethylamino-N-(2-hydroxyethyl)propylamino]-s-triazine] |  |  |  |  |  | 95 | 180 | Foam |  |
| CCN(CC)c1nc(N(C)CCO)nc(N(CC)CC)n1 [DMT, 2,4-bis(diethylamino)-6-N-methylethanolamine-s-triazine, reference compound] | 124 | 185 | Foam | 25 | No Foam |  |  |  |  |
| CN(C)CCCN(CCCN(C)C)c1nc(N(C)CCO)nc(N(CCCN(C)C)CCCN(C)C)n1 [Example IV, 2,4-bis[bis(3-dimethylaminopropyl)amino]-6-(N-methyl-2-hydroxyethylamino)-s-triazine] |  |  |  |  |  | 100 | 188 | Foam |  |
| CCN(CC)CCN(C)c1nc(N(C)CCO)nc(N(C)CCN(CC)CC)n1 [Example VI, 2,4-bis(N-methyl-2-diethylaminoethylamino)-6-(N-methyl-2-hydroxyethylamino)-s-triazine] | 94 | 140 | Resin | 25 | Foam |  |  |  | 177 |

— US3988337A, “Substituted triamino-s-triazines” (BASF Wyandotte Corporation, priority 1974, dated 1976)
